Results reported in US20220160669A1, “PARENTERAL NUTRITION FORMULATION” (BAXTER INTERNATIONAL INC., priority 2020, published 2022).

Legend:
Il-6 = experiment: Serum cytokine quantification, Il-6; assay type: in vivo, pig; settings: 10 mmol/L TPN (Group C)
Source text: (§1) Neonatal Yorkshire/Landrace cross bred piglets (n=72; six at a time from the same litter, repeating 12 times) were obtained from Oak Hill Genetics (Ewing, Ill.) after 48-hour sow reared for colostrum consumption and iron supplementation.
(§2) The influence of the respective supplements on inflammation was investigated by determining Il-6, Il-1beta, TNF-alpha and Il-10 serum levels in the intervention groups compared to EN and PN according to Milo et al., Effects of Short-Chain Fatty Acid-Supplemented Total Parenteral Nutrition on Intestinal Pro-Inflammatory Cytokine Abundance. Digestive Diseases and Sciences 2002; 47:2049-2055. Jejunal and ileal samples were homogenized in double-distilled water, and the Bradford protein assay (Biorad, Hercules, Calif., USA) was performed on homogenate and plasma samples. Protein (30 μg) from each sample was denatured by boiling, and proteins were separated by size using 12.5% sodium dodecyl sulfate polyacrylamide gel electrophoresis. Separated proteins were transferred to polyvinylidene difluoride membranes (Biorad) using a semidry transfer apparatus (Biorad). Western blot analysis for TNF-alpha, IL-1beta, Il-10 and IL-6 was performed using porcine-specific polyclonal antibodies (Endogen, Woburn, Mass., USA). A mouse anti-pig monoclonal TNF-alpha antibody was used to detect TNF-alpha ([…]). […]

[1] = test system: metastatic colorectal cancer patients; settings: aqueous solution, pH 7.7, phase I clinical trial; cited from earlier work
[2] = test system: anti-inflammatory cytokines I1-8, I1-10; experiment: Ileal cytokine concentration, anti-inflammatory; assay type: in vivo, pig; set-up: key: +++ indicate P < 0.01; ++ indicates P < 0.05; + indicates positive trends; = denotes no significant P value; − denotes negative trends; settings: 10 mmol/L, compared to standard PN (s-PN)
Source text: as §1
(§3) The influence of the respective supplements on inflammation was investigated by determining Il-6, Il-1beta, TNF-alpha and Il-10 serum levels in the intervention groups compared to EN and PN according to Milo et al., Effects of Short-Chain Fatty Acid-Supplemented Total Parenteral Nutrition on Intestinal Pro-Inflammatory Cytokine Abundance. Digestive Diseases and Sciences 2002; 47:2049-2055. Jejunal and ileal samples were homogenized in double-distilled water, and the Bradford protein assay (Biorad, Hercules, Calif., USA) was performed on homogenate and plasma samples. Protein (30 μg) from each sample was denatured by boiling, and proteins were separated by size using 12.5% sodium dodecyl sulfate polyacrylamide gel electrophoresis. Separated proteins were transferred to polyvinylidene difluoride membranes (Biorad) using a semidry transfer apparatus (Biorad). Western blot analysis for TNF-alpha, IL-1beta, Il-10 and IL-6 was performed using porcine-specific polyclonal antibodies (Endogen, Woburn, Mass., USA). A mouse anti-pig monoclonal TNF-alpha antibody was used to detect TNF-alpha ([…]). Rabbit anti-pig polyclonal antibodies specific for IL-1beta and IL-6 were used to detect IL-1beta (17,500 kDa), Il-10 (18,600 kDa) and IL-6 (26,000 kDa). Membranes were developed using the Opti-4CN kit (Biorad) and photographed using the FOTO/Analyst Image Analysis System (Fotodyne, Inc., Hartland, Wis., USA). Densitometry of TNF-alpha, IL-1beta, IL-6, and Il-10 was performed using Collage Image Analysis Software 4.0 (Fotodyne, Inc.). Results are shown in FIG. 15 (Il-6), FIG. 16 (Illbeta), FIG. 17 (TNF-alpha) and FIG. 18 (Il-10).

TNF-alpha = experiment: Serum cytokine quantification, TNF-alpha; assay type: in vivo, pig; settings: 10 mmol/L TPN (Group C)
Source text: as §1, §2

Il-1beta = experiment: Serum cytokine quantification, Il-1beta; assay type: in vivo, pig; settings: 10 mmol/L TPN (Group C)
Source text: as §1, §2

[3] = test system: Pro-inflammatory cytokines; experiment: Pro-inflammatory cytokines, summary (site not stated); assay type: in vivo, pig; set-up: key: + denotes a positive effect (compared to standard PN); ++ a very positive effect; − denotes no difference; settings: 10 mmol/L in PN, compared to standard PN
Source text: as §1, §3

[4] = test system: pro-inflammatory cytokines I1-1β, I1-6, TNF-α; experiment: Ileal cytokine concentration, pro-inflammatory; assay type: in vivo, pig; settings: 10 mmol/L, compared to standard PN (s-PN)
Source text: as §1, §3

[5] = test system: Neonatal Yorkshire/Landrace cross bred piglets; experiment: Intestinal histomorphology: villus height and crypt depth; assay type: in vivo, pig; set-up: key to Villus (total) / Crypt (total): + denotes a positive effect (compared to standard PN); ++ a very positive effect; − denotes no difference; key to Total villus height / Total crypt depth: +++ indicate P < 0.01; ++ indicates P < 0.05; + indicates positive trends; = denotes no significant P value; − denotes negative trends; settings: for average duodenal crypt length (crypt depth, FIG. 8) / average duodenal villous length (FIG. 7) / average ileal crypt depth (FIG. 11) / average jejunal crypt depth (FIG. 10) / average jejunal villous length (FIG. 9): 10 mmol/L TPN; for % Δ from PN, Colon C (crypt depth) / % Δ from PN, Duodenum C (crypt depth) / % Δ from PN, Duodenum V (villus height) / % Δ from PN, Ileum C (crypt depth) / % Δ from PN, Ileum V (villus height) / % Δ from PN, Jejunum C (crypt depth) / % Δ from PN, Jejunum V (villus height) / % Δ from PN, Total Total (crypt + villus) / % Δ from PN, Total C (crypt depth) / % Δ from PN, Total V (villus height): 10 mmol/L TPN (Groups A, C, D); for % Δ from PN, Total C (crypt depth) / % Δ from PN, Total V (villus height): sum over sections; for Crypt (total) / Villus (total): 10 mmol/L in PN, all sections, compared to standard PN
Experimental: as §1
Formalin-fixed intestinal samples were embedded in paraffin, sliced to approximately 5-μm thickness with a microtome and stained with hematoxylin and eosin (FIG. 6). Villus height, midvillus width, and crypt depth were measured by using a Nikon Optiphot-2 microscope (Nikon, Melville, N.Y.) and ImagePro Express software (Version 4.5; Media Cybernetics, Inc, Silver Spring, Md.) in 8 to 10 well-oriented villi and crypts. Villus surface area (villus height×midvillus width) was also calculated. In addition, intestinal segment circumference was measured to estimate intestinal surface area. The results are provided in FIGS. 7 through 12 (see there for details). […] The Table summarizes the average difference (in % of each Intervention Group (A, B, C, D) versus the PN Group) of the villus height and the crypt depth in the different sections of the gut, i.e. duodenum, jejunum, ileum and colon. The Intervention Groups show an improved villus height compared to the s-PN Group.

[6] = cited from earlier work
[7] = test system: pro-inflammatory cytokines I1-1β, I1-6, TNF-α; experiment: Jejunal cytokine concentration, pro-inflammatory; assay type: in vivo, pig; settings: 10 mmol/L, compared to standard PN (s-PN)
Source text: as §1, §3

[8] = test system: Neonatal Yorkshire/Landrace cross bred piglets; experiment: Duodenal mucosal resistance (Ussing chamber), PN-fed neonatal piglets; assay type: in vivo, pig; set-up: key: + denotes a positive effect (compared to standard PN); ++ a very positive effect; − denotes no difference; settings: 10 mmol/L in PN, 10 days, compared to standard PN
[9] = test system: anti-inflammatory cytokines I1-10; experiment: Jejunal cytokine concentration, anti-inflammatory; assay type: in vivo, pig; settings: 10 mmol/L, compared to standard PN (s-PN)
Source text: as §1, §3

[10] = 10 mmol/L, compared to standard PN (s-PN)

| Molecule | Pro-inflammatory cytokines [3] | average duodenal crypt length (crypt depth, FIG. 8) [5] | average duodenal villous length (FIG. 7) [5] | average ileal crypt depth (FIG. 11) [5] | average jejunal crypt depth (FIG. 10) [5] | average jejunal villous length (FIG. 9) [5] | % Δ from PN, Colon C (crypt depth) [5] | % Δ from PN, Duodenum C (crypt depth) [5] | % Δ from PN, Duodenum V (villus height) [5] | % Δ from PN, Ileum C (crypt depth) [5] | % Δ from PN, Ileum V (villus height) [5] | % Δ from PN, Jejunum C (crypt depth) [5] | % Δ from PN, Jejunum V (villus height) [5] | % Δ from PN, Total Total (crypt + villus) [5] | % Δ from PN, Total C (crypt depth) [5] | % Δ from PN, Total V (villus height) [5] | Crypt (total) [5] | Villus (total) [5] | Tight junctions [8] | further results |
| --- | --- | --- | --- | --- | --- | --- | --- | --- | --- | --- | --- | --- | --- | --- | --- | --- | --- | --- | --- | --- |
| L-arginine, butanoate (3:4) [Arginine butyrate] | ++ | slightly better even than Groups A and D | only slightly below the mean values determined for Groups B and D | close behind | gave the best results | gave the best results | +22% | +15% | +35% | +7% | +16% | +3% | +26% | +124% | +47% | +77% | + | + | ++ | serum levels of Il-6 (FIG. 15) (Il-6): significantly lower than in the standard PN group; tolerated dose [1]: 3 g/kg/day; Ileal Cytokine Concentration (more anti-inflammatory cytokines I1-8, I1-10) [2]: +^4; serum levels of TNF-alpha (FIG. 17) (TNF-alpha): lower than in the other Study (or intervention) Groups; serum levels of Il1-beta (FIG. 16) (Il-1beta): significantly lower than in the standard PN group; Ileal Cytokine Concentration (less pro-inflammatory cytokines I1-1β, I1-6, TNF-α) [4]: ++ (++ indicates P < 0.05); improvement of the gut architecture in total ([5]; 10 mmol/L TPN (Group C), versus other groups): most prominent improvement of the gut architecture; Total crypt depth [5, 10]: +; Total villus height [5, 10]: +; gut architecture, systemic and local inflammation and systemic and local immunity (overall) ([5]; versus the Group which obtained standard PN): especially beneficial; clearance rate ([6]; human, in vivo): 93.6 ± 31.9 mL/min/kg; steady state concentration ([6]; infusion rate of 2000 mg/kg/day, patients with hemoglobinopathy): 15.7 ± 4.8 mg/L; Jejunal Cytokine Concentration (less pro-inflammatory cytokines I1-1β, I1-6, TNF-α) [7]: +++ (+++ indicate P < 0.01); Jejunal Cytokine Concentration (more anti-inflammatory cytokines I1-8, I1-10) [9]: ++ (++ indicates P < 0.05) |
| CCCCCCCCCCCCCCCC(=O)OCC(COC(=O)CCC)OC(=O)CCCCCCCCCCCCCCC (stereo not shown) [1,2-Dipalmitoyl 3-butyryl glycerol] | + | gave the best results | increased villous length compared to the other study groups | significant difference | lower | relatively good results | +12% | +19% | +31% | +15% | +24% | +2% | +5% | +110% | +50% | +60% | + | + | − |  |
